Earlier results as cited in patent publication US9040535B2, “Crystalline molecular comlpexes of tadalafil” (THAR PHARMACEUTICALS, INC., priority 2009, dated 2015).

Tests used:
[1] = n-octanol/buffer pH 7.4

solubility in chloroform (chloroform): sparingly soluble
solubility in dioxane (dioxane): soluble
solubility in tetrahydrofuran (tetrahydrofuran): sparingly soluble
solubility in water (water): practically insoluble
apparent partition coefficient (log P)app [1]: 1.7
Structure (SMILES): CN1CC(=O)N2[C@H](c3ccc4c(c3)OCO4)c3[nH]c4ccccc4c3C[C@@H]2C1=O [Tadalafil, (6R-trans)-6-(1,3-benzodioxol-5-yl)-2,3,6,7,12,12a-hexahydro-2methyl-pyrazino[1′,2′:1,6]pyrido[3,4-b]indole-1,4-dione]
